# Experimental data from ChEMBL document CHEMBL1201862, “PubChem BioAssay data set” (2004).
# Active and inactive are the calls of the source.
# Tests used:
# [1] = target: T1, Carboxy-terminal domain RNA polymerase II polypeptide A small phosphatase 1 (Homo sapiens, UniProt Q9GZU7); test: inhibitors of CTDSP1, concentration-response testing, biochemical assay, absorbance-based, actives from ultra-high-throughput screening (AID 540297); type: functional
# T1 sequence (Q9GZU7 whole entry): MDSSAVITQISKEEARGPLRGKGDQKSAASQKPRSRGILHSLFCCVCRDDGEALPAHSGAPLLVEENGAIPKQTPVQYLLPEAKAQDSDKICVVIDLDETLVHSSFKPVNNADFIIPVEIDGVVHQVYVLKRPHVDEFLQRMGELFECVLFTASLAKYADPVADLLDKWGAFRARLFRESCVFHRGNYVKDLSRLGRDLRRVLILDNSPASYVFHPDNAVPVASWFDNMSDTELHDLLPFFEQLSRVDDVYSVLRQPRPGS
# Protein skinhead-1 = target: T2, Protein skinhead-1 (Caenorhabditis elegans, UniProt P34707); type: functional
# T2 sequence (P34707 whole entry): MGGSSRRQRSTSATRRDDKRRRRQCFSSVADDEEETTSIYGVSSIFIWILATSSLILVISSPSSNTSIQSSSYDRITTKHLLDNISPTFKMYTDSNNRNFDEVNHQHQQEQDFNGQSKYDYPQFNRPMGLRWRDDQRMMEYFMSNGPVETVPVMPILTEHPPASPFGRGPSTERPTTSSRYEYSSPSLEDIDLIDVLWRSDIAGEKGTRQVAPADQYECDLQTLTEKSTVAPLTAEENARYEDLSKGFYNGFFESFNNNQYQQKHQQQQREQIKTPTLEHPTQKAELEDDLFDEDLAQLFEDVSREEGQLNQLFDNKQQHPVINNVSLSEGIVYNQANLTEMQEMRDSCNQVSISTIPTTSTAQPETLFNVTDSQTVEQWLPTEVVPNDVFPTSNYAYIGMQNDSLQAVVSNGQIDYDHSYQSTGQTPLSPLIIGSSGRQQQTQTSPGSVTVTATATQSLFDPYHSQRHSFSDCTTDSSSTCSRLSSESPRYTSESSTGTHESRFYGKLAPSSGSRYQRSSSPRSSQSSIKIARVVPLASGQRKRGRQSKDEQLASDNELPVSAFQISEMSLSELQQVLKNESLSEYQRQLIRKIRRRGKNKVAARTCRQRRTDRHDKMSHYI
# [2] = HEp-2 cell cytotoxicity, dose response, cytotoxicity control for RSV inhibitor project, HTS (AID 2410); type: functional; details: human respiratory syncytial virus
# [3] = tested on: Streptococcus sp. 'group A'; test: growth inhibition of control SK(-) GAS strain, dose response, counter-screen for streptokinase expression inhibitor project, luminescence, kanamycin, BacTiterGlo, confirmation (AID 1900); type: functional, organism-based
# Streptokinase A = target: T3, Streptokinase A (Streptococcus pyogenes serotype M1, UniProt P10520); test: S. pyogenes streptokinase expression inhibitors, potency, dose response, plasminogen activation absorbance, OD405 (AID 1914); type: functional, Streptococcus pyogenes M1 GAS;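 also: secreted streptokinase activity via plasminogen activation per viability signal from cell pellet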
# T3 sequence (P10520 whole entry): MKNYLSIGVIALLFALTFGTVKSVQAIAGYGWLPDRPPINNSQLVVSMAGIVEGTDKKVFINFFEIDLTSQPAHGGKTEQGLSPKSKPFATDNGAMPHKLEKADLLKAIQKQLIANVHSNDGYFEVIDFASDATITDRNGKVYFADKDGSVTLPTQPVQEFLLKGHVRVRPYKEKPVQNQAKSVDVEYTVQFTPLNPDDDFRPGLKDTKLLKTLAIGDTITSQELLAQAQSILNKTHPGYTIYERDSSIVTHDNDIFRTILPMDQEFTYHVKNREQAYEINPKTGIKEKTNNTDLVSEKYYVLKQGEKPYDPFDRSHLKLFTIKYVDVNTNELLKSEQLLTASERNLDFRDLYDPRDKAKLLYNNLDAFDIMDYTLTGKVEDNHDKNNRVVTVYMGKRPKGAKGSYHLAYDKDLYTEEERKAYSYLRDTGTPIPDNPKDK
# [4] = growth suppression of PTEN-null colon cells, dose response, cell-based, HCT116 PTEN knockout (AID 1047); type: functional;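 also: HCT116 colon tumor cells with PTEN knocked out; cells exposed to compound for 60 hours before readout; potency for loss of cell viability measured by luminescence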
# [5] = growth suppression of beta-catenin-knockout colon cells, dose response, cell-based, HCT116, human colon tumor (AID 1045); type: functional;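 also: HCT116 colon tumor cells with beta catenin knocked out; cells exposed to compound for 60 hours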
# Streptococcus = test: Group A Streptococcus viability loss, dose response, counter-screen for streptokinase expression inhibitor project, luminescence, BacTiterGlo (AID 1915); type: functional, organism-based;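 also: potency for reduction of bacterial viability or growth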
# Fatty acid synthase [6] = target: T4, Fatty acid synthase (Homo sapiens, UniProt P49327); test: FAS thioesterase domain inhibitors, dose response, biochemical, endpoint fluorescence intensity, uHTS hits (AID 624327); type: functional;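 also: fluorescence from hydrolysis of an O-methyl fluorescein acyl ester substrate by the enzyme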
# T4 sequence (P49327 whole entry, the tested form may be a part): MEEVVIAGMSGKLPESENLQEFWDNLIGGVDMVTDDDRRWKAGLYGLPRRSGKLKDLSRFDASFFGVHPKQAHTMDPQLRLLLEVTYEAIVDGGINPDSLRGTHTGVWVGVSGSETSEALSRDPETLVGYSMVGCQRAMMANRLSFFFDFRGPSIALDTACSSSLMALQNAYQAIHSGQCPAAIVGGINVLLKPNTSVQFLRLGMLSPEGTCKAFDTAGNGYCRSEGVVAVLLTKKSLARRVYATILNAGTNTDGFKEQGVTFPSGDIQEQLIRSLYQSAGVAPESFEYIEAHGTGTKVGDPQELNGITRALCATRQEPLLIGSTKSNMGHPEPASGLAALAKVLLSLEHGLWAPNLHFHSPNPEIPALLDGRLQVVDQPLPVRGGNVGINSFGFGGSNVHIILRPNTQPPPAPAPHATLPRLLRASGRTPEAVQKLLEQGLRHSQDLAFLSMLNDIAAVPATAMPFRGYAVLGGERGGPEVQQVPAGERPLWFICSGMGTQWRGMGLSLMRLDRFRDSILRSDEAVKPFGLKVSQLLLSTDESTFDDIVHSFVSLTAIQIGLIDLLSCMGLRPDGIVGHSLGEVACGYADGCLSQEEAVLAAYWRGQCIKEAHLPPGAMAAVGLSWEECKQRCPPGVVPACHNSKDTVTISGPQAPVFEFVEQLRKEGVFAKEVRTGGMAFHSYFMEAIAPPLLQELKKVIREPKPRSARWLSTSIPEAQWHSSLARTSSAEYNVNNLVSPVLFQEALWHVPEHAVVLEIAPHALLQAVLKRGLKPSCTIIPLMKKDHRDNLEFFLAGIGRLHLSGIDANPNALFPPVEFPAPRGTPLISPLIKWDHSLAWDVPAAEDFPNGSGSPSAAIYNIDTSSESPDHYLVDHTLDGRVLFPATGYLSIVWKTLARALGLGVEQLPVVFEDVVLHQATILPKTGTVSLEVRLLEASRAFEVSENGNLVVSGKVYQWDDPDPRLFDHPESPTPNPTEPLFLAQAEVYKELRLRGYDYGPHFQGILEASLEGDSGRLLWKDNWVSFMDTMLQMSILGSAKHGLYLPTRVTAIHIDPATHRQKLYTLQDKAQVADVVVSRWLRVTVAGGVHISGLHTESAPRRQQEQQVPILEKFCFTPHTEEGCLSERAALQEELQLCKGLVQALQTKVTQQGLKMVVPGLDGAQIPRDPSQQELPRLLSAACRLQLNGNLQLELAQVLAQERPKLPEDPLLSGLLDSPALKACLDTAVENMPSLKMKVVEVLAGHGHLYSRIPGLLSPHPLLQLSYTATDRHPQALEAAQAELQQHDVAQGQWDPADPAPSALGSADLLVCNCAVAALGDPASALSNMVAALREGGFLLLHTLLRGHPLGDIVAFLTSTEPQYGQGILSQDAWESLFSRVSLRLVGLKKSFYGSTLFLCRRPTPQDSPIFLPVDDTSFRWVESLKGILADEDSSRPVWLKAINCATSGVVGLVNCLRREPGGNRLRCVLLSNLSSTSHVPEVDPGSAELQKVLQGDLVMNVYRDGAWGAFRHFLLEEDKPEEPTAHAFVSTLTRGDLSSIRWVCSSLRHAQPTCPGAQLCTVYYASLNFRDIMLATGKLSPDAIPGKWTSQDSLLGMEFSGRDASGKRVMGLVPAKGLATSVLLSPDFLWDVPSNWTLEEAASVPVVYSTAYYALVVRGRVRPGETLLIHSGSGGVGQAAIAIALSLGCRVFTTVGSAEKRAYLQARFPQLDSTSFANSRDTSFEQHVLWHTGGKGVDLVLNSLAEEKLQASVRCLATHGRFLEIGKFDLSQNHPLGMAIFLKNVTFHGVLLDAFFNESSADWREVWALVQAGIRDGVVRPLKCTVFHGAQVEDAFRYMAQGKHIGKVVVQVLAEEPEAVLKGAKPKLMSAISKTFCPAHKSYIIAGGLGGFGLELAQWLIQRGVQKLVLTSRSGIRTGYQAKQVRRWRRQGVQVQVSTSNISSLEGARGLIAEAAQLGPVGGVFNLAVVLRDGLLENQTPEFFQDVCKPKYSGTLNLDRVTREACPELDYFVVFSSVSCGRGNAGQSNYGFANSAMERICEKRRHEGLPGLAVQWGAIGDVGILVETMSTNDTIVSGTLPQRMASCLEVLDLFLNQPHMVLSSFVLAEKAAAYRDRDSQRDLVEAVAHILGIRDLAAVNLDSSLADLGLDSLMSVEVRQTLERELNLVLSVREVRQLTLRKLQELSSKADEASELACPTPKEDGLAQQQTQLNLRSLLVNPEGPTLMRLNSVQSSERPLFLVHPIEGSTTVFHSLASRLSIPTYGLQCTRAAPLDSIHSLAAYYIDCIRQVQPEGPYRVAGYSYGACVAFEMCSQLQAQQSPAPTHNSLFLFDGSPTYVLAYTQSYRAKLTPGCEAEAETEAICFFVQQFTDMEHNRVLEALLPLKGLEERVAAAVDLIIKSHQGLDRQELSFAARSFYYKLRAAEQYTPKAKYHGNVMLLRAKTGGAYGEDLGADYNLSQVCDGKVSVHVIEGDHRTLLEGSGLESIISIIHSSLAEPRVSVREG
# Fatty acid synthase [7] = target: T4, Fatty acid synthase; test: FAS thioesterase domain inhibitors, dose response, biochemical, kinetic fluorescence intensity (AID 624326); type: functional;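 also: rate of fluorescence rise from hydrolysis of a fluorogenic O-methyl fluorescein ester substrate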
# Cytochrome P450 1A2 = target: T5, Cytochrome P450 1A2 (Homo sapiens, UniProt P05177);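 also: PubChem cytochrome P450 panel assay, CYP1A2 panel member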
# T5 sequence (P05177 whole entry): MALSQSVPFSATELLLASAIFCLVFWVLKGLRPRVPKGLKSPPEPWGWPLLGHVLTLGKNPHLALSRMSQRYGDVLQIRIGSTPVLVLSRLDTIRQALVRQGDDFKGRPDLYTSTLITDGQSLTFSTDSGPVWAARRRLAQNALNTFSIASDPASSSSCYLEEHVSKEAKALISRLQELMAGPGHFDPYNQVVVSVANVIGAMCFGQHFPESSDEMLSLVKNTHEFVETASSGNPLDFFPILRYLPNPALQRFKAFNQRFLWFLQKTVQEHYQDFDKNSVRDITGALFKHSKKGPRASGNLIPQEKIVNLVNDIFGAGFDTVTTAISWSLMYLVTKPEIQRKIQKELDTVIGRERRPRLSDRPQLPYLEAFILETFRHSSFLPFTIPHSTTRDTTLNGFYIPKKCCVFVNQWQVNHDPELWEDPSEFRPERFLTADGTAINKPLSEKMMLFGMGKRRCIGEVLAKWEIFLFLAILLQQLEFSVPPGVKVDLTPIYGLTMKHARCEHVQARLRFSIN
# Cytochrome P450 2C9 = Cytochrome P450 2C9 (Homo sapiens, UniProt P11712)
# Chain of Cytochrome P450 2C9 (P11712 whole entry): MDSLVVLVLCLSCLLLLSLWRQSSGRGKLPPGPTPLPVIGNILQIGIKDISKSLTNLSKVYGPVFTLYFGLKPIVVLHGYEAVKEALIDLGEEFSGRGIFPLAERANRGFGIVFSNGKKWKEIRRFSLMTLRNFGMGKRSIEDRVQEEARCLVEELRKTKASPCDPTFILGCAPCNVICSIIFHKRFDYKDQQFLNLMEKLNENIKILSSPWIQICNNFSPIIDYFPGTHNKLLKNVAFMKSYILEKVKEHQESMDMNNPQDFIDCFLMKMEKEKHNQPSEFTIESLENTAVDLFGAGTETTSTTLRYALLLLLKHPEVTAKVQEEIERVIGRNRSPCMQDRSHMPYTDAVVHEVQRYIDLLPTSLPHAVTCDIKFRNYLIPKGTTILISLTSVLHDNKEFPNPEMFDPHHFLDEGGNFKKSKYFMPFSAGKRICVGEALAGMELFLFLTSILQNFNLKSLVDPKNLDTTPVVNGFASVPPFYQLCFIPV
# [8] = target: T6, Heat shock factor protein 1 (Mus musculus, UniProt P38532); test: HSF1 potentiators in luciferase reporter cells, confirmation, cell-based, NIH3T3, luminescence, dose retest (AID 435004); type: functional;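 also: stress induced by proteasome inhibitor MG132 added 30 min after compound; luciferase reporter driven by HSF1 response element in NIH3T3 cells; actives raise luminescence as potentiators of the MG132 stress response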
# T6 sequence (P38532 whole entry): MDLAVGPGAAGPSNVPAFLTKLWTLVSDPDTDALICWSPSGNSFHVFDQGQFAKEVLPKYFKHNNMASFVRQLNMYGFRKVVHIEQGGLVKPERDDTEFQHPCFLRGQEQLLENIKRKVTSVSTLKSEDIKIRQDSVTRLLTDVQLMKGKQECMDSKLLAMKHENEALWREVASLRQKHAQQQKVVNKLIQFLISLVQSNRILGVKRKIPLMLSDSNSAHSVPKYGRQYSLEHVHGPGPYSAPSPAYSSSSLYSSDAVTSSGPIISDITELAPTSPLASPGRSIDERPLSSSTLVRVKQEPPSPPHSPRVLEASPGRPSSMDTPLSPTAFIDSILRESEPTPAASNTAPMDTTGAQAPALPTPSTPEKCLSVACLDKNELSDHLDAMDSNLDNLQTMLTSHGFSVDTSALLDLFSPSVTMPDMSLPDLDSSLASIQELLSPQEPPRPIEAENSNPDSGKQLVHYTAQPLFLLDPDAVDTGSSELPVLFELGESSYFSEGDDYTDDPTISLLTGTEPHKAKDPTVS
# Cytochrome P450 3A4 = Cytochrome P450 3A4 (Homo sapiens, UniProt P08684);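 also: CYP3A4 tested as one member of a cytochrome P450 panel screen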
# Chain of Cytochrome P450 3A4 (P08684 whole entry): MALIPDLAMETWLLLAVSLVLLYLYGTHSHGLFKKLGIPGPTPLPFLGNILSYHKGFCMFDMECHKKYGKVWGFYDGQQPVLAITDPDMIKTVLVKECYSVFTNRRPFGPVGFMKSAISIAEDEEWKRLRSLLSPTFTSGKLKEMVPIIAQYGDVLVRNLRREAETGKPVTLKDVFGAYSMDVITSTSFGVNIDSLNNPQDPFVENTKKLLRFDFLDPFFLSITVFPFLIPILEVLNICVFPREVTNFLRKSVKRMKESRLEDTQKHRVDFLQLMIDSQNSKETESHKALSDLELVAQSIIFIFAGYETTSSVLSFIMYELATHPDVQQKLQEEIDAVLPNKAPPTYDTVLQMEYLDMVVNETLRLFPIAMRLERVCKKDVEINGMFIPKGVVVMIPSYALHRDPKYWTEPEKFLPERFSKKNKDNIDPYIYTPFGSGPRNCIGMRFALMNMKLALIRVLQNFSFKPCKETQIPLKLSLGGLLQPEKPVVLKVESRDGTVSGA
# [9] = inhibitors of intracellular T. cruzi replication, confirmation, NIH3T3 host cells, beta-gal luminescence (AID 2044); type: functional, cell-based;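 also: intracellular parasites grown in NIH/3T3 mouse fibroblasts as host cells; luminescent beta-galactosidase reporter signal from transgenic T. cruzi replicating inside host cells; inhibitors lower the luminescence signal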
# [10] = cytotoxicity toward NIH3T3 fibroblasts, dose response, counter-screen, cell-based, ATP luminescence, mouse fibroblasts (AID 2010); type: functional;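 also: cells exposed to compound for about 90 hours before reading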
# Vero = test: cells; type: functional; details: Chlorocebus sabaeus
# [11] = THP-1 cell cytotoxicity, dose response, cytotoxicity control for Vif-APOBEC3G degradation inhibitor project, THP-1 cells (AID 1117359); type: functional; details: Human immunodeficiency virus 1, THP-1
# [12] = target: T7, Corticotropin-releasing factor receptor 2/Corticotropin-releasing factor-binding protein (Homo sapiens, UniProt P24387+Q13324); test: Dose Response confirmation of uHTS hits for small molecule antagonists of the CRF-binding protein and CRF-R2 receptor complex.; type: functional; details: read-out: IC50_Mean
# T7 sequence (Q13324 whole entry): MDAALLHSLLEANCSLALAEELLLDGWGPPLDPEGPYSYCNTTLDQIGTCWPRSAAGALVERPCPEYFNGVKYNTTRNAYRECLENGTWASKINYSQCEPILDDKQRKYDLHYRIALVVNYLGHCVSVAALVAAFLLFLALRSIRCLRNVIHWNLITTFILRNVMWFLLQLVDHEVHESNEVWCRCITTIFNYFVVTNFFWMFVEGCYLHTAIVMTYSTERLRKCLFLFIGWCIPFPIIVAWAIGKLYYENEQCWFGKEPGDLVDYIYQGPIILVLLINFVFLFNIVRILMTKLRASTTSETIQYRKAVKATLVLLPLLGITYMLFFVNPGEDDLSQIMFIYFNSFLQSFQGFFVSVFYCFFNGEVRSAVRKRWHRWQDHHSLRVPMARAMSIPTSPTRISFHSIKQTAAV
# T7 sequence (P24387 whole entry): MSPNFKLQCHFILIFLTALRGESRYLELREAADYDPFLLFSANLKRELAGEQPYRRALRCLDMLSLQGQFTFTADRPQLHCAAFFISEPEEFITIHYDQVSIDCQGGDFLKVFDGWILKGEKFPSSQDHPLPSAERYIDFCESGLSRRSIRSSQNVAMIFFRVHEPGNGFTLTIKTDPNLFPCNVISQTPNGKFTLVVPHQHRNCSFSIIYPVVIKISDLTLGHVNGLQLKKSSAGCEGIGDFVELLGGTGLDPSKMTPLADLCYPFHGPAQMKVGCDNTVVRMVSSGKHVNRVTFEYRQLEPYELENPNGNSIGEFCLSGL
# [13] = target: T7, Corticotropin-releasing factor receptor 2/Corticotropin-releasing factor-binding protein; test: activators of CRF receptor 2 with binding protein – uHTS hits, confirmation (AID 602473); type: functional; details: read-out: EC50_Mean
# [14] = target: Induced myeloid leukemia cell differentiation protein Mcl-1 (Homo sapiens, UniProt Q07820); type: functional
# Chain of Induced myeloid leukemia cell differentiation protein Mcl-1 (Q07820 whole entry): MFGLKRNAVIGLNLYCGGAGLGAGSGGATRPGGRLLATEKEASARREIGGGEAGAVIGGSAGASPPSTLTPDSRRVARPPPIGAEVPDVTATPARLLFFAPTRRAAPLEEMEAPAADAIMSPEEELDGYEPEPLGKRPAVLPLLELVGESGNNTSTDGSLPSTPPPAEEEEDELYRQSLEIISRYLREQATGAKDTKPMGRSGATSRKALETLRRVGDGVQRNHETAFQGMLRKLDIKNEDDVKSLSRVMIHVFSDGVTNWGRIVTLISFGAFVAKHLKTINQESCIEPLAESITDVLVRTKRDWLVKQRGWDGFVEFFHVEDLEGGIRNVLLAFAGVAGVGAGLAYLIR
# [15] = Luminescence Cell-Based Dose Retest to Confirm Inhibitors of Cancer Stem Cells. [Related pubchem assays (depositor defined):AID2717, AID2721]; type: functional; details: Homo sapiens
compound,measurement,setting,value
O=C(O)/C(=C/c1ccco1)NC(=O)c1ccccc1,IC50,[1],6.04 µM (active)
O=c1c2ccccc2sc2ccccc12,IC50,Protein skinhead-1,59.3 µM (inactive)
CCCCOc1ccc(-c2c(C#N)c(N)nc(SCC(N)=O)c2C#N)cc1,CC50,[2],19.9 µM (active)
same,EC50,[3],6.77 µM (active)
same,EC50,Streptokinase A,> 150 µM (not active)
same,EC50,[4],15.8 µM (active)
same,EC50,[5],21.2 µM (active)
same,EC50,Streptococcus,> 150 µM (not active)
same,IC50,Fatty acid synthase [6],1.12 µM (active)
same,IC50,Fatty acid synthase [7],0.644 µM (active)
Cc1[nH]n(-c2ccccc2)c(=O)c1CCOC(=O)c1ccc(C(F)(F)F)cc1,AC50,Cytochrome P450 1A2,15.8 µM (inconclusive)
same,AC50,Cytochrome P450 2C9,inconclusive
O=C(Oc1ccc(C(=S)N2CCOCC2)cc1Br)c1cc(Cl)ccc1Cl,EC50,[8],68.8 µM (active)
same,AC50,Cytochrome P450 3A4,12.6 µM (inconclusive)
same,AC50,Cytochrome P450 2C9,inconclusive
COc1ccc(N(C(=O)CNC(=O)c2ccco2)C(C(=O)NC2CCCCC2)c2cccnc2)cc1 (stereo unspecified),IC50,Protein skinhead-1,> 100 µM (inactive)
CC(C)(C)c1ccc2c(c1)OC(C(=O)N/N=C/c1ccc([N+](=O)[O-])o1)CO2 (stereo unspecified),EC50,[3],5.27 µM (active)
same,EC50,Streptokinase A,5.82 µM (active)
same,EC50,[9],102 nM (active)
same,EC50,[10],> 60 µM (not active)
same,EC50,Streptococcus,10.3 µM (active)
same,CC50,Vero,> 25 µM (active)
same,IC50,[1],5.41 µM (active)
CCN(CC)P(=S)(c1c(C)nc2ccccn12)c1c(C)nc2ccccn12,CC50,[11],13.9 µM (active)
Cc1ccc2[nH]c(/C(C#N)=C\c3ccc(Oc4ccc(C(F)(F)F)cc4[N+](=O)[O-])cc3)nc2c1,IC50,[1],2.42 µM (active)
O=C(/C=C/c1cccc([N+](=O)[O-])c1)N1CCN(c2ccccc2F)CC1,IC50,Fatty acid synthase [6],11.6 µM (active)
same,IC50,Fatty acid synthase [7],6.52 µM (active)
COc1ccc(C2Nc3ccccc3C(=O)N2c2ccc(Cl)cc2)cc1Cn1cc([N+](=O)[O-])cn1 (stereo unspecified),CC50,[11],> 40 µM (active)
CCc1ccc(N(C2C=CS(=O)(=O)C2)S(=O)(=O)c2ccc(C)cc2)cc1 (stereo unspecified),CC50,[11],> 40 µM (active)
COc1ccc(Cc2nc(-c3ccc(Cl)cc3)no2)cc1,IC50,[12],> 47.1 µM (inactive)
same,EC50,[13],> 53 µM (inactive)
same,IC50,Protein skinhead-1,> 100 µM (inactive)
Cc1c(Cl)cnc(NC(=O)COC(=O)c2ccc(S(=O)(=O)NCc3ccco3)cc2)c1Cl,IC50,[1],8.67 µM (active)
CCC1CSC(Nc2ccc(C(=O)/C=C/c3cccc(C)c3)cc2)=N1 (stereo unspecified),EC50,[9],3060 nM (active)
same,EC50,[10],> 60 µM (not active)
same,IC50,[14],1.66 µM (active)
same,AC50,[15],5.77 µM (active)
same,EC50,[8],12.9 µM (active)
same,CC50,Vero,> 25 µM (active)
same,IC50,Protein skinhead-1,> 100 µM (inactive)
O=C(C1CCN(S(=O)(=O)c2c(Cl)cccc2Cl)CC1)N1CCCC1,IC50,Protein skinhead-1,> 100 µM (inactive)
COc1ccc(CC(=O)N2CCCC(C)C2)cc1 (stereo unspecified),IC50,Protein skinhead-1,> 100 µM (inactive)
COc1ccc2cc3cc(C(=O)N4CCCCCC4)oc3nc2c1,IC50,Fatty acid synthase [6],3.92 µM (active)
same,IC50,Fatty acid synthase [7],3.37 µM (active)
CCOC(=O)c1cc2c(=O)n3ccccc3nc2n(Cc2ccco2)/c1=N/C(=O)c1ccc(OC)cc1,IC50,Fatty acid synthase [6],14.6 µM (active)
same,IC50,Fatty acid synthase [7],80 µM (inactive)
